From patent US11787785B2 (NOVARTIS AG, priority 2021, dated 2023)

Target: T1, WIZ protein (HiBit-WIZ fusion protein) (Homo sapiens, UniProt O95785+Q96SW2)
T1 construct: expressed in transfected cells
Experiment: Quantification of WIZ protein levels in HiBit tag fusion protein assay (WIZ HiBit assay in 293T cells)
Format: cell-based
Settings: for Dmax at 25 µM / remaining activity at 25 µM: HEK-293T, 293T cells; for Dmax at 25 µM: 100 − Amax, read-out: % degradation of WIZ (100 − Amax); for remaining activity at 25 µM: DMSO-normalized, curve-fitted percentage of WIZ-HiBit remaining at 25 uM, read-out: WIZ Amax; for DC50: WIZ HiBit assay in 293T cells, 10-point, 5-fold dose response, highest concentration 25 μM, about 18 hours, read-out: WIZ AC50
Procedure, shortened: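 Luminescence after LgBit complementation quantified remaining HiBit-WIZ in lysates of single-copy stable 293T lines. Cells dosed ~18 h at 37 °C with 10-point, 5-fold dilutions (highest 25 μM); DMSO set to 100%, fitted curve gave % remaining at 25 μM (Amax).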

T1 sequence (O95785 whole entry, the tested form may be a part): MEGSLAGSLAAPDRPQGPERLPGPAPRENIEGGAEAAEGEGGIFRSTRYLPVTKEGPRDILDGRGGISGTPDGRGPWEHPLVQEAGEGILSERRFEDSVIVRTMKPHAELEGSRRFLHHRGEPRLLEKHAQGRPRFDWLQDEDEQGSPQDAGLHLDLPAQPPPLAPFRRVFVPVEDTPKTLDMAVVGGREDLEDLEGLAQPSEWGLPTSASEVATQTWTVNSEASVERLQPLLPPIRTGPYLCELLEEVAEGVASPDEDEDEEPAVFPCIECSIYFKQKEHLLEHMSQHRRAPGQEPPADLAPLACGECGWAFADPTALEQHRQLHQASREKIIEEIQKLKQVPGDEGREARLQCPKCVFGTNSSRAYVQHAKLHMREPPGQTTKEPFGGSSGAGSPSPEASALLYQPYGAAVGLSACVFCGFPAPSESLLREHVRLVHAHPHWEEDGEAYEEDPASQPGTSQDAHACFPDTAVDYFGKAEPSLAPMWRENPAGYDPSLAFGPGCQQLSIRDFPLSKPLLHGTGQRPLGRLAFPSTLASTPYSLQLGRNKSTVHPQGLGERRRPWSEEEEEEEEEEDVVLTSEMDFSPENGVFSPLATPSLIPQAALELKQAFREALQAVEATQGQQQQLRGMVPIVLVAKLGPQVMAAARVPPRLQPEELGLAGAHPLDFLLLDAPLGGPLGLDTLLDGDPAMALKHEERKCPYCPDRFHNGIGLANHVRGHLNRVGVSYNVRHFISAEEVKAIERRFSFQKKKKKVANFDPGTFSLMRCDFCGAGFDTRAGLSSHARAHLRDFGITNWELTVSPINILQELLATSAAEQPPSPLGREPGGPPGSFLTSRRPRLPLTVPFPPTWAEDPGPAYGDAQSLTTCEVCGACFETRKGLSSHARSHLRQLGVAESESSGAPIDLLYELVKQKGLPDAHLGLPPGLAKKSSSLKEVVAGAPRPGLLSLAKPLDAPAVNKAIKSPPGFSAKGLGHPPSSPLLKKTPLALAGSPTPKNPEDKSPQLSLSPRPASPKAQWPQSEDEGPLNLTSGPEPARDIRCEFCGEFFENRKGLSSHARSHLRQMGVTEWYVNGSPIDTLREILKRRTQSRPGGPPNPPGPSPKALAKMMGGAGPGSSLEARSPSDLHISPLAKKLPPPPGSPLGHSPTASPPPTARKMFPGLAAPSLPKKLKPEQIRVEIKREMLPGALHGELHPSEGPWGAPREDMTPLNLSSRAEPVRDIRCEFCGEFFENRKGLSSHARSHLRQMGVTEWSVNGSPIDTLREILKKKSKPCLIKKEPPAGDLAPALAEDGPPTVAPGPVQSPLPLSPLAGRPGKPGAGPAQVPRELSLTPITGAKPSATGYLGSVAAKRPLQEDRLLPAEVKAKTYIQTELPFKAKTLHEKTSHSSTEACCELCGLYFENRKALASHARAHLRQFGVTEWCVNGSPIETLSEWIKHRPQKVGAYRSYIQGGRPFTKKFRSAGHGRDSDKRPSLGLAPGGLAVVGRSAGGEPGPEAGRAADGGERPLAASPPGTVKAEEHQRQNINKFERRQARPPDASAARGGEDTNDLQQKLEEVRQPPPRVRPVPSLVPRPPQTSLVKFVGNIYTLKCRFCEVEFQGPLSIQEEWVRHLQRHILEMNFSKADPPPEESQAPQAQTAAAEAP
T1 sequence (Q96SW2 whole entry, the tested form may be a part): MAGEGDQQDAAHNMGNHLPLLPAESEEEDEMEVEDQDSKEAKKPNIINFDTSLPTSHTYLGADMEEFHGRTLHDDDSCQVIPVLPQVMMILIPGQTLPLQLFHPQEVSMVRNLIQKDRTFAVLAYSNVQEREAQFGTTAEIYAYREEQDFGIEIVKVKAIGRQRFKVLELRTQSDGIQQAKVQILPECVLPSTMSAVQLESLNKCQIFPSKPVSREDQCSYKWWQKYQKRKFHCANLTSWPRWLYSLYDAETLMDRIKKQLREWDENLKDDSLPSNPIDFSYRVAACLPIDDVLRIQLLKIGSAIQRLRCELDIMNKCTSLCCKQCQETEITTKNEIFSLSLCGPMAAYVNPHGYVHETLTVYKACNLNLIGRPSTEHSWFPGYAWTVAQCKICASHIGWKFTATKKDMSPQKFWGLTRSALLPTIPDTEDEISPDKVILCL
T1 sequence (Q16531 whole entry partner, the tested form may be a part): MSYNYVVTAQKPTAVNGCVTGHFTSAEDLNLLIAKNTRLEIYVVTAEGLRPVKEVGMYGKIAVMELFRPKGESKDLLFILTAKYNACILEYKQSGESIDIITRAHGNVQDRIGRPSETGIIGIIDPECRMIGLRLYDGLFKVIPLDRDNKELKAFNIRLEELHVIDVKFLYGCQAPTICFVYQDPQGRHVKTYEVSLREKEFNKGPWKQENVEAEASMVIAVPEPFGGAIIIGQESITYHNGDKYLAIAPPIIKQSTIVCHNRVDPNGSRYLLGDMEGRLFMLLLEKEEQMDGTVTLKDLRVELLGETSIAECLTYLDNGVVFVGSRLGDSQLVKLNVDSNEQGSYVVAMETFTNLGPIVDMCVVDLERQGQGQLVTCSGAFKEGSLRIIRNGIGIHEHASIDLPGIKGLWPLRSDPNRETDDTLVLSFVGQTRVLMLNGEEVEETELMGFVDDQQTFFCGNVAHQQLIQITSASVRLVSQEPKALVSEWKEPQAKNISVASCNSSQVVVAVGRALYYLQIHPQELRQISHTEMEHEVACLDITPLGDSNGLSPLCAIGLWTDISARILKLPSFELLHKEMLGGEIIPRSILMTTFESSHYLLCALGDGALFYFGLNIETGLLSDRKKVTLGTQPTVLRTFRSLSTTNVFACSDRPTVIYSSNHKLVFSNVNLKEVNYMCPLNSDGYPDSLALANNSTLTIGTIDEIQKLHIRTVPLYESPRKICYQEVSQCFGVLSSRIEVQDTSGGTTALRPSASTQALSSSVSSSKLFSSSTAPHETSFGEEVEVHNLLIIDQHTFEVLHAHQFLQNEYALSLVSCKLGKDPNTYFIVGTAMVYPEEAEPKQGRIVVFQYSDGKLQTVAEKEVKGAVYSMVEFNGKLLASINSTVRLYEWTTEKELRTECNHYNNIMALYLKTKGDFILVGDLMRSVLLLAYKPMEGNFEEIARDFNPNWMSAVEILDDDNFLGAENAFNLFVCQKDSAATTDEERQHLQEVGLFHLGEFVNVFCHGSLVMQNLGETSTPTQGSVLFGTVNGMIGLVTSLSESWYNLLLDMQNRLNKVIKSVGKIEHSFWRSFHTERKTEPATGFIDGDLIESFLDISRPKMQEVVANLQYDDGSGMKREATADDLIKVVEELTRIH

Structure (SMILES) | Dmax at 25 µM [%] | remaining activity at 25 µM [%] | DC50 [nM]
CC(C)C(=O)N1CCN(Cc2ccn3ncc(N4CCC(=O)NC4=O)c3c2)C[C@@H]1C [Example 341, (S)-1-(5-((4-isobutyryl-3-methylpiperazin-1-yl)methyl)pyrazolo[1,5-a]pyridin-3-yl)dihydropyrimidine-2,4(1H,3H)-dione] | 30 | 70 | 799
C[C@H]1CN(Cc2ccn3ncc(N4CCC(=O)NC4=O)c3c2)CCN1C(=O)C1CCCCC1 [Example 342, (S)-1-(5-((4-(cyclohexanecarbonyl)-3-methylpiperazin-1-yl)methyl)pyrazolo[1,5-a]pyridin-3-yl)dihydropyrimidine-2,4(1H,3H)-dione] | 37 | 63 | 916
C[C@H]1CN(Cc2ccn3ncc(N4CCC(=O)NC4=O)c3c2)CCN1C(=O)C1CCCC1 [Example 343, (S)-1-(5-((4-(cyclopentanecarbonyl)-3-methylpiperazin-1-yl)methyl)pyrazolo[1,5-a]pyridin-3-yl)dihydropyrimidine-2,4(1H,3H)-dione] | 46 | 54 | 495
C[C@H]1CN(Cc2ccn3ncc(N4CCC(=O)NC4=O)c3c2)CCN1C(=O)C1CCC1 [Example 344, (S)-1-(5-((4-(cyclobutanecarbonyl)-3-methylpiperazin-1-yl)methyl)pyrazolo[1,5-a]pyridin-3-yl)dihydropyrimidine-2,4(1H,3H)-dione] | 35 | 65 | 1070
CC(C)CN1CCN(C(C)c2ccn3ncc(N4CCC(=O)NC4=O)c3c2)CC1 (stereo not drawn) [Example 345, 1-(5-(1-(4-isobutylpiperazin-1-yl)ethyl)pyrazolo[1,5-a]pyridin-3-yl)dihydropyrimidine-2,4(1H,3H)-dione] | 73 | 27 | 191
CC(C)CN1CC[C@@H](Cc2ccn3ncc(-n4ccc(=O)[nH]c4=O)c3c2)C[C@@H]1C [Example 346, 1-(5-(((2S,4R)-1-isobutyl-2-methylpiperidin-4-yl)methyl)pyrazolo[1,5-a]pyridin-3-yl)pyrimidine-2,4(1H,3H)-dione] | 87 | 13 | 108
Cc1cn(-c2cnn3ccc(C[C@@H]4CCN(CC(C)C)[C@@H](C)C4)cc23)c(=O)[nH]c1=O [Example 347, 1-(5-(((2S,4R)-1-isobutyl-2-methylpiperidin-4-yl)methyl)pyrazolo[1,5-a]pyridin-3-yl)-5-methylpyrimidine-2,4(1H,3H)-dione] | 89 | 11 | 378
Cc1cn(-c2cnn3ccc(C[C@@H]4CCN(CC5CC5)[C@@H](C)C4)cc23)c(=O)[nH]c1=O [Example 348, 1-(5-(((2S,4R)-1-(cyclopropylmethyl)-2-methylpiperidin-4-yl)methyl)pyrazolo[1,5-a]pyridin-3-yl)-5-methylpyrimidine-2,4(1H,3H)-dione] | 86 | 14 | 400
CC(C)CN1CC[C@@H](Cc2ccn3ncc(-n4cc(F)c(=O)[nH]c4=O)c3c2)C[C@@H]1C [Example 349, 5-fluoro-1-(5-(((2S,4R)-1-isobutyl-2-methylpiperidin-4-yl)methyl)pyrazolo[1,5-a]pyridin-3-yl)pyrimidine-2,4(1H,3H)-dione] | 86 | 14 | 118
C[C@H]1C[C@H](Cc2ccn3ncc(-n4cc(F)c(=O)[nH]c4=O)c3c2)CCN1CC1CCC(F)(F)CC1 [Example 350, 1-(5-(((2S,4R)-1-((4,4-difluorocyclohexyl)methyl)-2-methylpiperidin-4-yl)methyl)pyrazolo[1,5-a]pyridin-3-yl)-5-fluoropyrimidine-2,4(1H,3H)-dione] | 90 | 10 | 28
Cc1cn(-c2cnn3ccc(C[C@@H]4CCN(CC5CCC(F)(F)CC5)[C@@H](C)C4)cc23)c(=O)[nH]c1=O [Example 351, 1-(5-(((2S,4R)-1-((4,4-difluorocyclohexyl)methyl)-2-methylpiperidin-4-yl)methyl)pyrazolo[1,5-a]pyridin-3-yl)-5-methylpyrimidine-2,4(1H,3H)-dione] | 91 | 9 | 47
C[C@H]1C[C@H](Cc2ccn3ncc(-n4cc(Cl)c(=O)[nH]c4=O)c3c2)CCN1CC1CCC(F)(F)CC1 [Example 352, 5-chloro-1-(5-(((2S,4R)-1-((4,4-difluorocyclohexyl)methyl)-2-methylpiperidin-4-yl)methyl)pyrazolo[1,5-a]pyridin-3-yl)pyrimidine-2,4(1H,3H)-dione] | 90 | 10 | 192

Further lines, results first:

Dmax at 25 µM [%] | remaining activity at 25 µM [%] | DC50 [nM] | Structure (SMILES)
70 | 30 | 9100 | COc1cn(-c2cnn3ccc(C[C@@H]4CCN(CC5CCC(F)(F)CC5)[C@@H](C)C4)cc23)c(=O)[nH]c1=O [Example 353, 1-(5-(((2S,4R)-1-((4,4-difluorocyclohexyl)methyl)-2-methylpiperidin-4-yl)methyl)pyrazolo[1,5-a]pyridin-3-yl)-5-methoxypyrimidine-2,4(1H,3H)-dione]
0 | 100 | > 25000 | CC(C)CN1CC[C@@H](Cc2ccn3ncc(-n4cc(C5CC5)c(=O)[nH]c4=O)c3c2)C[C@@H]1C [Example 354, 5-cyclopropyl-1-(5-(((2S,4R)-1-isobutyl-2-methylpiperidin-4-yl)methyl)pyrazolo[1,5-a]pyridin-3-yl)pyrimidine-2,4(1H,3H)-dione]
82 | 18 | 183 | C[C@H]1C[C@H](Cc2ccn3ncc(-n4ccc(=O)[nH]c4=O)c3c2)CCN1C(=O)C1CC1 [Example 355, 1-(5-(((2S,4R)-1-(cyclopropanecarbonyl)-2-methylpiperidin-4-yl)methyl)pyrazolo[1,5-a]pyridin-3-yl)pyrimidine-2,4(1H,3H)-dione]
83 | 17 | 162 | CCS(=O)(=O)N1CC[C@@H](Cc2ccn3ncc(-n4ccc(=O)[nH]c4=O)c3c2)C[C@@H]1C [Example 356, 1-(5-(((2S,4R)-1-(ethylsulfonyl)-2-methylpiperidin-4-yl)methyl)pyrazolo[1,5-a]pyridin-3-yl)pyrimidine-2,4(1H,3H)-dione]
85 | 15 | 124 | CC(C)CN1CCN(Cc2ccn3ncc(-n4ccc(=O)[nH]c4=O)c3c2)C[C@@H]1C [Example 357, (S)-1-(5-((4-isobutyl-3-methylpiperazin-1-yl)methyl)pyrazolo[1,5-a]pyridin-3-yl)pyrimidine-2,4(1H,3H)-dione]
86 | 14 | 128 | CC(C)CN1CCN(Cc2ccn3ncc(-n4cc(F)c(=O)[nH]c4=O)c3c2)C[C@@H]1C [Example 358, (S)-5-fluoro-1-(5-((4-isobutyl-3-methylpiperazin-1-yl)methyl)pyrazolo[1,5-a]pyridin-3-yl)pyrimidine-2,4(1H,3H)-dione]
89 | 11 | 365 | Cc1cn(-c2cnn3ccc(CN4CCN(CC(C)C)[C@@H](C)C4)cc23)c(=O)[nH]c1=O [Example 359, (S)-1-(5-((4-isobutyl-3-methylpiperazin-1-yl)methyl)pyrazolo[1,5-a]pyridin-3-yl)-5-methylpyrimidine-2,4(1H,3H)-dione]
24 | 76 | > 25000 | COc1cn(-c2cnn3ccc(CN4CCN(CC(C)C)[C@@H](C)C4)cc23)c(=O)[nH]c1=O [Example 360, (S)-1-(5-((4-isobutyl-3-methylpiperazin-1-yl)methyl)pyrazolo[1,5-a]pyridin-3-yl)-5-methoxypyrimidine-2,4(1H,3H)-dione]
0 | 100 | > 25000 | CC(C)CN1CCN(Cc2ccn3ncc(-n4cc(C5CC5)c(=O)[nH]c4=O)c3c2)C[C@@H]1C [Example 361, (S)-5-cyclopropyl-1-(5-((4-isobutyl-3-methylpiperazin-1-yl)methyl)pyrazolo[1,5-a]pyridin-3-yl)pyrimidine-2,4(1H,3H)-dione]
84 | 16 | 765 | Cc1cn(-c2cnn3ccc(CN4CCN(CC5CC5)[C@@H](C)C4)cc23)c(=O)[nH]c1=O [Example 362, (S)-1-(5-((4-(cyclopropylmethyl)-3-methylpiperazin-1-yl)methyl)pyrazolo[1,5-a]pyridin-3-yl)-5-methylpyrimidine-2,4(1H,3H)-dione]
85 | 15 | 109 | C[C@H]1CN(Cc2ccn3ncc(-n4ccc(=O)[nH]c4=O)c3c2)CCN1CC1CCC(F)(F)CC1 [Example 363, (S)-1-(5-((4-((4,4-difluorocyclohexyl)methyl)-3-methylpiperazin-1-yl)methyl)pyrazolo[1,5-a]pyridin-3-yl)pyrimidine-2,4(1H,3H)-dione]
